The values that follow come from patent publication US9440930B2, “Substituted bicyclic dihydropyrimidinones and their use as inhibitors of neutrophil elastase activity” (Boehringer Ingelheim International GmbH, priority 2014, dated 2016).

Data set [1] addresses T1, neutrophil elastase in human plasma (Homo sapiens, UniProt P08246).
T1 construct: The stimulated blood is centrifuged to generate the neutrophil elastase enriched plasma; from tissue; host or cells: plasma from zymosan-stimulated citrated whole blood of healthy human donors
T1 sequence (P08246 30-267): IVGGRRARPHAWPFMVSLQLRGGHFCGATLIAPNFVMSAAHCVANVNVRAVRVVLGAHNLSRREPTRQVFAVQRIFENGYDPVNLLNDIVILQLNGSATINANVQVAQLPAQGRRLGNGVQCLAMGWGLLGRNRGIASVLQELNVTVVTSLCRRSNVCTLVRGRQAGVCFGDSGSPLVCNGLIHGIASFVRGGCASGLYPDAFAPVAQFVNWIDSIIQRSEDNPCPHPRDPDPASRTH
In words: Neutrophil elastase inhibitory activity in human plasma. The data set is classed as biochemical. Particulars: zymosan-stimulated human plasma, substrate MeOSuc-Ala-Ala-Pro-Val-AMC 250 μM. The protocol:
Assay for the Determination of Neutrophil Elastase Inhibitory Activity in Human Plasma
Citrated blood from human healthy donors is mixed with zymosan suspension and incubated at room temperature. This leads to the stimulation of neutrophils and the release of neutrophil elastase into the plasma. The stimulated blood is centrifuged to generate the neutrophil elastase enriched plasma.
• A single 45 ml blood sample is taken into a 50 ml tube containing citrate (3.13%, 5 mL) and the tube is gently inverted 4 times. • Immediately after blood sampling, zymosan working solution (5 mL) is added. • After the addition of zymosan working solution, the tubes are capped, mixed gently and incubated at 22° C. for 15 min on a shaker at 20 rpm. • Make 10 ml aliquots after the incubation time. • Centrifuge the 15 ml tubes at 800 g for 15 min at 4° C. in a Jouan centrifuge. • Harvest the plasma and make 1-5 ml aliquots. • Store the plasma at −80° C.
A dose response curve is generated to calculate the EC50 of the inhibitor. The analysis of the data is performed by the calculation of the percentage of fluorescence in the presence of the test compound compared to the fluorescence of the vehicle control after subtracting the background fluorescence: An inhibitor of the neutrophil elastase enzyme will give values between 100% control (no inhibition) and 0% control (complete inhibition).

A further data set relates to human hepatocytes. In words: Metabolic stability with human hepatocytes. The format is in vitro ADME. Conditions: human hepatocyte suspension, 1 μM compound, well stirred model. The protocol:
Assay for the Determination of Metabolic Stability with Human Hepatocytes
The metabolic degradation of the test compound is assayed in a human hepatocyte suspension. Human hepatocytes (typically cryopreserved) are incubated in an appropriate buffer system (e.g. Dulbecco's modified eagle medium plus 3.5 μg glucagon/500 mL, 2.5 mg insulin/500 mL and 3.75 mg/500 mL hydrocortison) containing 5% species serum. Following a (typically) 30 min preincubation in an incubator (37° C., 10% CO2), 5 μl of test compound solution (80 μM; from 2 min stock solution in DMSO diluted 1:25 with medium) are added into 395 μl hepatocyte suspension (cell density in the range 0.25-5*10^6 cells/mL, typically 1*10^6 cells/mL; final concentration of test compound 1 μM, final DMSO concentration 0.05%). The cells are incubated for six hours (incubator, orbital shaker) and samples (25 μl) are taken at 0, 0.5, 1, 2, 4 and 6 hours. Samples are transferred into acetonitrile and pelleted by centrifugation (5 min). The supernatant is transferred to a new 96-deepwell plate, evaporated under nitrogen and resuspended. The decline of parent compound is analyzed by LC-MS/MS. […]

A short description of data set [2]: Drug transport across human Caco-2 cells. Conditions: pH 7.2, 37° C. The data set is classed as in vitro ADME. An excerpt: Assay for Determination of Drug Transport Across Human Caco-2 Cells
The assay provides information on the potential of a compound to pass the cell membrane, on the extent of oral absorption as well as on whether the compound is actively transported by uptake and/or efflux transporters. For the measurement of permeability across polarized, confluent human cancer colon carcinoma cells 2 (Caco-2) cell monolayers grown on permeable filter supports are used as the in vitro absorption model.
Apparent permeability coefficients (PE) of the compounds across the Caco-2 monolayers are measured (pH 7.2, 37° C.) in apical-to-basal (AB) (absorptive) and basal-to-apical (BA) (secretory) transport direction. AB permeability (PEAB) represents drug absorption from the intestine into the blood and BA permeability (PEBA) drug secretion from the blood back into the intestine via both passive permeability as well as active transport mechanisms mediated by efflux and uptake transporters that are expressed on the Caco-2 cells. The compounds are assigned to permeability/absorption classes by comparison of the AB permeabilities with the AB permeabilities of reference compounds with known in vitro permeability and oral absorption in the human. Identical or similar permeabilities in both transport directions indicate passive permeation, vectorial permeability points to additional active transport mechanisms. […] Active transport is concentration-dependently saturable.
Caco-2 cells (1-2*10^5 cells/cm^2 area) are seeded on filter inserts (Costar transwell polycarbonate or PET filters, 0.4 μm pore size) and cultured (DMEM) for 10 to 25 days. Compounds are dissolved in appropriate solvent (like DMSO, 1-20 min stock solutions). Stock solutions are diluted with HTP-4 buffer (128.13 min NaCl, 5.36 min KCl, 1 mM MgSO4, 1.8 min CaCl2, 4.17 min NaHCO3, 1.19 min Na2HPO4×7H2O, 0.41 mM NaH2PO4×H2O, 15 min HEPES, 20 min glucose, pH 7.2) to prepare the transport solutions (typically 10 μM compound, final DMSO<=0.5%). The transport solution (TL) is applied to the apical or basolateral donor side for measuring A-B or B-A permeability (3 filter replicates), respectively. The receiver side contains HTP-4 buffer supplemented with 2% BSA. Samples are collected at the start and end of experiment from the donor and at various time intervals for up to 2 hours also from the receiver side for concentration measurement by LC-MS/MS or scintillation counting. Sampled receiver volumes are replaced with fresh receiver solution.
In general terms: Caco-2 cells form a polarised layer with tight junctions and transporters.

The target of data set [3] is hERG (human ether-a-go-go-related gene) potassium channel (Homo sapiens, UniProt Q12809). In words: hERG inhibition. The format is cell-based. For orientation: The hERG channel carries a current that helps repolarise heart muscle cells.
For another data set, the target named is hERG potassium channel (Homo sapiens, UniProt Q12809). The experiment in a line: hERG inhibition. The format is cell-based. Conditions: human; at 10 μM.

SMILES strings stand for the structures.

Chain of hERG potassium channel (Q12809 whole entry): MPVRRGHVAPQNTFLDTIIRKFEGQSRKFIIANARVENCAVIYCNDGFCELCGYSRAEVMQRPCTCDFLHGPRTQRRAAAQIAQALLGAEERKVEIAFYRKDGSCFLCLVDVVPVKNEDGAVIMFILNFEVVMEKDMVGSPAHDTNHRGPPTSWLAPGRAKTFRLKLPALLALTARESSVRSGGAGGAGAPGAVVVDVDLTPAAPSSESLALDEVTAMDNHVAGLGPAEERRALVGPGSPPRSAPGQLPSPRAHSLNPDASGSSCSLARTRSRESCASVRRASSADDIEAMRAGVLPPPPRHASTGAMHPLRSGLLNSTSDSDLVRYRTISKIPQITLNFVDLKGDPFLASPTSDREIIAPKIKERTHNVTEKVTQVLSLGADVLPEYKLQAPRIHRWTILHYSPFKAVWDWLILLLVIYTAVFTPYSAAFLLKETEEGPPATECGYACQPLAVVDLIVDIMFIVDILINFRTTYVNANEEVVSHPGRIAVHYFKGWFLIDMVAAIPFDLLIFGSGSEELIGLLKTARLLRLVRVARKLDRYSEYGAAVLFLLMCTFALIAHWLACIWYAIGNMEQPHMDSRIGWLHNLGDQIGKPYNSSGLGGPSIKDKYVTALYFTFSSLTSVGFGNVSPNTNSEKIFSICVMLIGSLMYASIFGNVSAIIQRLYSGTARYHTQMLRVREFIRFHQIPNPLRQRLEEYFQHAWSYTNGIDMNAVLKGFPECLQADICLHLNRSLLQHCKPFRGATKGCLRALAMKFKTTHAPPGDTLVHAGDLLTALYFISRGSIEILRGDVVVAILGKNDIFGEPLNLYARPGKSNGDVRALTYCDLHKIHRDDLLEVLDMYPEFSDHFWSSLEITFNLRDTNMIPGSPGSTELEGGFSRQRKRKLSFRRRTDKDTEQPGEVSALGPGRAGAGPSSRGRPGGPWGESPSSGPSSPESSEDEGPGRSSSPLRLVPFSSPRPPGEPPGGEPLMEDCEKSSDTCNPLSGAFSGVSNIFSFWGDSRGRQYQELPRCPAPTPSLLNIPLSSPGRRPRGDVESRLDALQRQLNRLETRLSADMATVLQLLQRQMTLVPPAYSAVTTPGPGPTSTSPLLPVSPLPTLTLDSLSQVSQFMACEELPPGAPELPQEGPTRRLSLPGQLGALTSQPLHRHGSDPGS
Chain of hERG (human ether-a-go-go-related gene) potassium channel (Q12809 whole entry): as above

As a reminder, the EC50 is the concentration that produces a half-maximal response. Lower therefore signals greater potency. The term IC50 denotes the concentration at which inhibition is half-maximal. The inhibition is the drop in the measured response relative to a control, in per cent. As to `CN1C(=O)N(c2cccc(C(F)(F)F)c2)C2=C(C(=O)CCC2)[C@H]1c1ccc(C#N)cc1[S+](C)[O-]` (single isomer, unassigned) [Example 2.2A, 3-Methanesulfinyl-4-[3-methyl-2,5-dioxo-1-(3-trifluoromethyl-phenyl)-1,2,3,4,5,6,7,8-octahydro-quinazolin-4-yl]-benzonitrile], the midpoint of the response in data set [1], the EC50, lay at 1 nM. Further, in the data set with human hepatocytes, the “predicted hepatic in vivo blood clearance” value is 5 % human hepatic blood flow. Besides, the Papp A→B at 10 µM in data set [2] (apical-to-basal, read-out: PEAB) turned out to be 19 ×10⁻⁶ cm/s. Moreover, the Papp B→A at 10 µM in data set [2] (basal-to-apical, read-out: PEBA) was 97 ×10⁻⁶ cm/s. The compound further came in with an IC50 in data set [3] of more than 30000 nM. In addition, the inhibition at 10 µM at hERG potassium channel came out at 9%.
